In patent publication US11759530B2, “TKI permeability enhancers” (City of Hope, priority 2014, dated 2023):
“Also recorded” adds a separate entry of the source.

Columns and labels:
[1] = test system: NIH 3T3 mouse fibroblasts; settings: read-out: IC50 for TGF-b-dependent cellular growth in NIH 3T3 mouse fibroblasts; cited from earlier work
mink lung cells = settings: read-out: IC50 for transcription activation in mink lung cells; cited from earlier work
CK1 (S. pombe) = settings: cited from earlier work
IP3-K = settings: cited from earlier work
[2] = test system: IL-1 production in human monocytes; settings: read-out: IC50 for inhibiting IL-1 production in human monocytes; cited from earlier work
PI3-Kα and δ = settings: read-out: IC50 for PI3-Kα and δ; unit given as mM; cited from earlier work
LNCaP cells = test: MTS cytotoxicity assay of TKI plus AR-ASO; type: cell-based; settings: 3 days, 1 uM TKI or 1 uM AR-ASO with titration of the paired drug
Procedure: (§1) FIG. 10: TKI synergizes AR-ASO against AR expression and the AR signal pathway. […] MTS assay of LNCaP treated for 3 days with 1 uM TKI or 1 uM AR-ASO (AR-ASO-1) in the presence of the titrations of the paired drug.

[3] = test system: androgen receptor (AR full length and AR variant 7) in LNCaP, LAPC-4, 22RV1 cells; test: Androgen receptor expression in prostate cancer cell lines; type: cell-based
Procedure: Panels A-C, Prostate cancer cell lines LNCaP (A), LAPC-4 (B), and 22RV1 (C) were treated with inhibitor at indicated concentrations for indicated incubation times. FL, AR full length; V7, AR variant 7.
as §1
Similar results have been obtained with Bcl-2.

[4] = test system: HCT-116 EGFP-miR21 tumor microspheroids; test: Oligo penetration into tumor microspheroids, confocal microscopy; type: cell-based, human
Procedure: HCT-116 cells were transfected with a plasmid that expresses EGFP under the control of mir-21. When the cells express endogenous mir-21, the expression of EGFP is silenced. These cells were grown into tumor microspheroids, which were treated with an anti-mir21 mix mer oligonucleotide under gymnotic conditions (i.e., no carriers, no conjugations). When the anti-mir21 mix mer (product of Santaris Pharma, Horsholm, Denmark) enters the cells, it prevents the binding of the endogenous mir21 to its complementary sites on the 3′UTR of the EGFP gene. EGFP is then expressed and the cells glow green. Applicants discovered, by confocal microscopy, that the penetration of the anti-mir21 into the tumor microspheroid was only approximately 3 cells deep. Applicants verified this by treating the microspheroids with a Cy5-labeled anti-Bcl-2 phosphorothioate LNA gapmer. Here again, the penetration was only about 3 cell layers deep. Applicants then wanted to increase the oligo penetration and increase the amount of EGFP produced per cell. Applicants then began to screen a library of tyrosine kinase inhibitors (TKIs). These were added (100 nm-1 uM) to the media in addition to the oligo. Applicants examined 4 TKIs: Sorafenib was ineffective. […] This work has tremendous practical utility as it provides a way of screening for active oligos in a non-animal model, and provides a way to improve oligo penetration in tumors.
The HCT-116 EGFP-miR21 stable, clonal cell line was used to create the microspheroids in 96-well hanging-drop plates (Perfecta 3D, Biometrix Inc., Ann Arbor, Mich.). Following trypsinization, the cells were lifted and re-suspended at a density of 3×10^5 cells in 300 μL DMEM (Irvine Scientific, Santa Ana, Calif., USA) supplemented with 10% fetal calf serum (Irvine Scientific), 1 mM L-glutamine, 5% non-essential amino acids. To improve the 3D structure of the spheroids, 2.5% Matrigel™ can be added to the cell seeding solution. […]
All microspheroids were incubated for additional 5 days and analyzed with a Zeiss confocal microscope. […]

HCT116-GFPmiR21 cells [5] = test: Drug screen: EGFP reactivation by anti-miR21 oligo plus compound (ASO uptake and function); type: cell-based, human; settings: for TKI effect on oligo penetration and EGFP produced per cell: TKI 100 nm-1 uM added to the media in addition to the oligo; for ASO uptake (eGFP activation), FIG. 3: anti-mir21 + drug
HCT116-GFPmiR21 cells [6] = test: ASO intracellular release: anti-miR21 pretreatment, wash, then compound; type: cell-based, human; settings: then drug
Procedure: A robotic screening of a library of tyrosine kinase inhibitors (TKIs) was performed. […] These compounds are under investigation with the aim of determining the mechanism and the lowest concentration required for maximal enhancement of ASO function. For the 14 compounds identified as active in the initial screen, EGFP reactivation was monitored every day for up to 6 days. To determine if any compound affected ASO intracellular release, cells were first treated with 1 μM anti-miR21 PS-mixmer. The next day the media was removed and cells were washed twice with PBS. After adding fresh media the cell were treated with 1 μM of each active compound. Since ASO uptake had already occurred, any enhancement of EGFP expression in active compound-treated cells would be an indication of improved ASO intracellular release.

c1ccc(-c2n[nH]cc2-c2ccnc3ccccc23)nc1
IC50 [1]: 89 nM | IC50 (mink lung cells): 47 nM

O=[N+]([O-])c1ccc(CNc2nc(NCc3cccc(C(F)(F)F)c3)nc3[nH]cnc23)cc1
IC50 (IP3-K): 10.2 µM

CS(=O)(=O)c1ccc(-c2nc(-c3ccc(F)cc3)c(-c3ccncc3)[nH]2)cc1
IC50 [2]: 200 nM

O=C1NC(=O)/C(=C/c2ccc3c(c2)OC(F)(F)O3)S1
IC50 (PI3-Kα and δ): > 0.02 mM

O=C1Nc2cc(Br)ccc2/C1=C1/Nc2ccccc2/C1=N/O [Compound 6-BIO]
Cytotoxicity of the combination of TKI and AR-ASO (MTS assay) (LNCaP cells): did not show increased cytoxicity | Androgen receptor downregulation ([3]; LNCaP, LAPC-4, 22RV1, AR full length and AR-V7): can downregulate both forms; also recorded: downregulates | Synergy with AR antisense oligo against AR expression and AR signal pathway ([3]; combined with AR-ASO, LNCaP and LAPC-4, 2 days): synergistic; also recorded: synergizes

COc1cccc2c1C(=O)c1c(O)c3c(c(O)c1C2=O)C[C@@](O)(C(=O)CO)C[C@@H]3O[C@H]1C[C@H](N)[C@H](O)[C@H](C)O1 [Doxorubicin]
Penetration into tumor spheroids (confocal Z-stacks) ([4]; FIG. 4-6): more uniform penetration

CNC(=O)c1cc(Oc2ccc(NC(=O)Nc3ccc(Cl)c(C(F)(F)F)c3)cc2)ccn1 [Sorafenib]
TKI effect on oligo penetration and EGFP produced per cell (HCT116-GFPmiR21 cells [5]): ineffective | ASO uptake (eGFP activation), FIG. 3 (HCT116-GFPmiR21 cells [5]): Decreased uptake

Cc1ccc(NC(=O)c2ccc(CN3CCN(C)CC3)cc2)cc1Nc1nccc(-c2cccnc2)n1 [imatinib, 4-[(4-methylpiperazin-1-yl)methyl]-N-(4-methyl-3-{[4-(pyridin-3-yl)pyrimidin-2-yl]amino}phenyl)benzamide]
Penetration of the anti-mir21 oligo in tumor microspheroids ([4]; TKI 100 nm-1 uM with oligo): increased penetration | Penetration of the Cy5-labeled anti-Bcl-2 oligo in tumor microspheroids ([4]; TKI with oligo): increased penetration was also seen | ASO uptake (eGFP activation), FIG. 3 (HCT116-GFPmiR21 cells [5]): Increased uptake | EGFP expression in tissue culture (HCT116-GFPmiR21 cells [5]; with anti-mir21 oligo, TKI 100 nm-1 uM): dramatically increased | ASO release (eGFP activation), FIG. 3 (HCT116-GFPmiR21 cells [6]): increased release

Cc1cn(-c2cc(NC(=O)c3ccc(C)c(Nc4nccc(-c5cccnc5)n4)c3)cc(C(F)(F)F)c2)cn1 [nilotinib, 4-methyl-N-[3-(4-methyl-1H-imidazol-1-yl)-5-(trifluoromethyl)phenyl]-3-[(4-pyridin-3-ylpyrimidin-2-yl)amino]benzamide]
TKI effect on oligo penetration and EGFP produced per cell (HCT116-GFPmiR21 cells [5]): shown to have activity
